{"source": "ChEMBL document CHEMBL2086329", "about": "“Design and synthesis of potent, selective inhibitors of matriptase” (ACS Med Chem Lett, 2012)", "key": {"[1]": {"target": "T1, Transmembrane protease serine 6 (Homo sapiens, UniProt Q8IU80)", "T1 sequence (Q8IU80 whole entry)": "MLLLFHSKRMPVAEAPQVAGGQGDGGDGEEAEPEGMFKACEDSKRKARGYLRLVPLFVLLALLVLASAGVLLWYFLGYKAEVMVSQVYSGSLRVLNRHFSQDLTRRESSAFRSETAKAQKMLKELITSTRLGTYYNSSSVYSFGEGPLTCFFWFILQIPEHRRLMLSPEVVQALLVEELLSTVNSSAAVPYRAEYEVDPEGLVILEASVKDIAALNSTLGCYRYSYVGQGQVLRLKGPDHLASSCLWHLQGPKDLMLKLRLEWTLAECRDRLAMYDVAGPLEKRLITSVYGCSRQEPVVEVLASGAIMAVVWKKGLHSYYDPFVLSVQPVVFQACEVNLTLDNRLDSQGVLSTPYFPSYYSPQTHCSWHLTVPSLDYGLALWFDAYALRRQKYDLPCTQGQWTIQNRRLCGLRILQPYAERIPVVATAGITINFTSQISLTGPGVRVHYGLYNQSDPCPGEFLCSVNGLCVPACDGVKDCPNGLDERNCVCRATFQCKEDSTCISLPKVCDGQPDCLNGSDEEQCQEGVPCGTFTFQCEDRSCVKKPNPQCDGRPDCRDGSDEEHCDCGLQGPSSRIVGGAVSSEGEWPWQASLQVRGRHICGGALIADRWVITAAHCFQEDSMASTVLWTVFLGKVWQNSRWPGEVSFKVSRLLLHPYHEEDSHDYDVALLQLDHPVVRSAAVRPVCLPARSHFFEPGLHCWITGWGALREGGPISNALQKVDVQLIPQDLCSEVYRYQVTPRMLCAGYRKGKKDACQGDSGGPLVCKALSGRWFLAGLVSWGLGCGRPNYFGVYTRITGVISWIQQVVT", "experiment": "Tight binding inhibition of human matriptase2 expressed in Drosophila melanogaster S2 cells using Boc-QAR-AMC as substrate incubated for 15 mins prior to substrate addition measured for 30 mins by fluorimetric analysis"}, "[2]": {"target": "T2, Transmembrane protease serine 11D (Homo sapiens, UniProt O60235)", "T2 sequence (O60235 whole entry)": "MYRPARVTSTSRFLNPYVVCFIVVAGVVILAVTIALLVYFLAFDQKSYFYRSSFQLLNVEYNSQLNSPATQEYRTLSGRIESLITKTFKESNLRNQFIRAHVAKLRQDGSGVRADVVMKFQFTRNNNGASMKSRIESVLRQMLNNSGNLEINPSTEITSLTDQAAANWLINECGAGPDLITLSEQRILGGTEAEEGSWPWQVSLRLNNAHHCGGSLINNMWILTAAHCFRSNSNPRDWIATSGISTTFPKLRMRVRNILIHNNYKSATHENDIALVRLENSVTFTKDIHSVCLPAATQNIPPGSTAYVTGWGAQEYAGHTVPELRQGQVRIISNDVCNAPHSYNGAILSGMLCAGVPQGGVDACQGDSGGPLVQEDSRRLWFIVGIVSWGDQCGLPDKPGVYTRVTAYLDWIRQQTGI", "experiment": "Tight binding inhibition of human TMPRSS11D expressed in Drosophila melanogaster S2 cells using Boc-QAR-AMC as substrate incubated for 15 mins prior to substrate addition measured for 30 mins by fluorimetric analysis"}, "[3]": {"target": "Trypsin (Homo sapiens, UniProt P07477+P07478+P35030)", "experiment": "Tight binding inhibition of human trypsin expressed in Drosophila melanogaster S2 cells using Boc-QAR-AMC as substrate incubated for 15 mins prior to substrate addition measured for 30 mins by fluorimetric analysis"}, "[4]": {"target": "Prothrombin (Homo sapiens, UniProt P00734)", "experiment": "Mixed inhibition of human thrombin expressed in Drosophila melanogaster S2 cells using Boc-QAR-AMC as substrate by fluorimetric analysis"}, "[5]": {"target": "Furin (Homo sapiens) (UniProt P09958)", "sequence (P09958 whole entry)": "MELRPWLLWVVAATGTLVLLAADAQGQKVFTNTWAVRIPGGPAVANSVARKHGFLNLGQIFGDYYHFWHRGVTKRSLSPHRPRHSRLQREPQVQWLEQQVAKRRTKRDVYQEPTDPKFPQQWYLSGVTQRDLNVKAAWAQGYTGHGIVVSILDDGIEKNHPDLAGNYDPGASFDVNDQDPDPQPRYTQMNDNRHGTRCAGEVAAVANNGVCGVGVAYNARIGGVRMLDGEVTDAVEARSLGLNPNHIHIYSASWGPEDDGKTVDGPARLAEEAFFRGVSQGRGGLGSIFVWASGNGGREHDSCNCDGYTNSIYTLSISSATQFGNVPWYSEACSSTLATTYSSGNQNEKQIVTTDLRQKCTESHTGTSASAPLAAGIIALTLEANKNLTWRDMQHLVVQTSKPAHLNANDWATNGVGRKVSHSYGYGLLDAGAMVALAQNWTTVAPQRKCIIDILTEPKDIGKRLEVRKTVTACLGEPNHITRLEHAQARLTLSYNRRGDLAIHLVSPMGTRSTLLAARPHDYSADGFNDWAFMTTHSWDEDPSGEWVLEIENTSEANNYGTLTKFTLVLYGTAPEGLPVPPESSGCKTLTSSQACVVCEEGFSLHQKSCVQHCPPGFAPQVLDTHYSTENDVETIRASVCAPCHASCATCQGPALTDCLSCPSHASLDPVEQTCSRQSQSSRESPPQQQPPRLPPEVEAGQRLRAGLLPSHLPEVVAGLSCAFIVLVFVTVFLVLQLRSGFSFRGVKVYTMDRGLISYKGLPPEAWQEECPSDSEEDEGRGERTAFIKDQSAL", "experiment": "Inhibition of human furin expressed in Drosophila melanogaster S2 cells using Boc-RRVR-AMC as substrate at 10 uM"}, "[6]": {"target": "T3, Suppressor of tumorigenicity 14 protein (Homo sapiens) (UniProt Q9Y5Y6)", "T3 sequence (whole entry)": "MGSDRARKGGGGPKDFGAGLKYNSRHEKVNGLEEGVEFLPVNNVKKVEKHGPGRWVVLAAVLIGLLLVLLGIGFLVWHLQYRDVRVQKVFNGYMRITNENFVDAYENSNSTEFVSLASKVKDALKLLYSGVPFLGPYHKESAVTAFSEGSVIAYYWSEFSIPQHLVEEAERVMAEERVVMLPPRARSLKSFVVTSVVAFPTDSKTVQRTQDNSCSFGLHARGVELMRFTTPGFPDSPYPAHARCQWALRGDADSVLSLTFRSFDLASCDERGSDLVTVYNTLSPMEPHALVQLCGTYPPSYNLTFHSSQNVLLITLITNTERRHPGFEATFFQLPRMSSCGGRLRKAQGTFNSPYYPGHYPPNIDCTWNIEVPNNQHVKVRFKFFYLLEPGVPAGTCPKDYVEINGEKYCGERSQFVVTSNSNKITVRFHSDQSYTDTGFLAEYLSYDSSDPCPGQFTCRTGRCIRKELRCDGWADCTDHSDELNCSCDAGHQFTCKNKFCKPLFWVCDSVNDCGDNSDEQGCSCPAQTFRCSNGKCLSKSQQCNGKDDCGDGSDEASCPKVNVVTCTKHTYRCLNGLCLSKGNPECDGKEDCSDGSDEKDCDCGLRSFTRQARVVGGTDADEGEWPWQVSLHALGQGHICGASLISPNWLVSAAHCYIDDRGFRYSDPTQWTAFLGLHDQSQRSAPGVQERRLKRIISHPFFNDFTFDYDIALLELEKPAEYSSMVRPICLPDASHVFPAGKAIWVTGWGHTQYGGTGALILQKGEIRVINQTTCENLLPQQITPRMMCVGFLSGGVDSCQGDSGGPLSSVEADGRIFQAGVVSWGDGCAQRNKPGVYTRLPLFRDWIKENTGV", "details": "S2, 2.5 nM", "description": "Inhibition of human matriptase expressed in Drosophila melanogaster S2 cells using Boc-QAR-AMC as substrate at 2.5 nM by fluorimetric analysis"}, "[7]": {"target": "T4, Suppressor of tumorigenicity 14 protein (Homo sapiens, UniProt Q9Y5Y6)", "T4 sequence (Q9Y5Y6 whole entry)": "T3 sequence (whole entry)", "experiment": "Mixed inhibition of human matriptase expressed in Drosophila melanogaster S2 cells using Boc-QAR-AMC as substrate by fluorimetric analysis"}, "[8]": {"target": "T4, Suppressor of tumorigenicity 14 protein", "experiment": "Tight binding inhibition of human matriptase expressed in Drosophila melanogaster S2 cells using Boc-QAR-AMC as substrate incubated for 15 mins prior to substrate addition measured for 30 mins by fluorimetric analysis"}, "[9]": {"target": "T3, Suppressor of tumorigenicity 14 protein (Homo sapiens)", "experiment": "Irreversible inhibition of human matriptase expressed in Drosophila melanogaster S2 cells using Boc-QAR-AMC as substrate incubated for 20 mins prior to substrate addition measured for 75 mins by fluorimetric analysis"}}, "note": "Active and inactive are the calls of the source. No cut-off for these calls is given here. Where a SMILES comes first, the peptide text is derived from it. The star is where a group is joined. CH2Cl = ClC*"}
{"smiles": "C[C@H](NC(=O)[C@H](CCC(N)=O)NC(=O)[C@@H](N)CCCNC(=N)N)C(=O)N[C@@H](CCCNC(=N)N)C(=O)c1nc2ccccc2s1", "values": [{"measurement": "Ki", "setting": "[1]", "result": 3.3, "unit": "nM"}, {"measurement": "Ki", "setting": "[2]", "result": 8.4, "unit": "nM"}, {"measurement": "Ki", "setting": "[3]", "result": 0.97, "unit": "nM"}, {"measurement": "Ki", "setting": "[4]", "result": 637, "unit": "nM"}, {"measurement": "inhibition", "setting": "[5]", "result": "inactive"}, {"measurement": "inhibition", "setting": "[6]", "result": "Active"}]}
{"smiles": "N=C(N)NCCC[C@H](N)C(=O)c1nc2ccccc2s1", "values": [{"measurement": "Ki", "setting": "[7]", "result": 0.457, "unit": "µM"}]}
{"smiles": "C[C@H](N)C(=O)N[C@@H](CCCN=C(N)N)C(=O)c1nc2ccccc2s1", "values": [{"measurement": "Ki", "setting": "[8]", "result": 1.4, "unit": "nM"}]}
{"smiles": "N=C(N)NCCC[C@H](NC(=O)CNC(=O)[C@@H](N)CCC(=O)O)C(=O)CCl", "note": "(H-Glu-Gly-Arg-CH2Cl)", "values": [{"measurement": "inhibition", "setting": "[9]", "result": "Active"}]}
{"smiles": "C[C@H](NC(=O)[C@H](CCC(N)=O)NC(=O)[C@@H](N)CCCNC(=N)N)C(=O)N[C@@H](CCCNC(=N)N)C(O)c1nc2ccccc2s1", "note": "(mixture of isomers)", "values": [{"measurement": "Ki", "setting": "[7]", "result": 6.12, "unit": "µM"}]}
